Reference: patent US10287267B2, “Isoquinolin-3-yl carboxamides and preparation and use thereof” (Samumed, LLC, priority 2016, dated 2019)
Where two headings read alike, the source gives them in different places.

Tests used:
[1] = system: SW480 colon carcinoma cells; assay: Cell viability assay (CellTiter-Glo); format: cell-based, human; settings: Homo sapiens; for EC50: 96 h, SW480 cells, CellTiter-Glo, four days incubation; for inhibition at 10 µM: SW480, read-out: percent inhibition at 10 μM
recombinant GSK3β kinase = recombinant GSK3β kinase (Homo sapiens (Human), UniProt P49841); assay: GSK3β kinase assay (Ser/Thr 09 peptide Z-lyte FRET); format: biochemical; settings: 46 μM ATP, 1 h room temperature;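 also: kinase activity read as coumarin to fluorescein emission ratio, 11-point threefold dilutions from 10 µM to 0.0003 µM in duplicate, unphosphorylated and phosphorylated peptide as 0% and 100% controls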
[2] = system: Tau phosphorylation at Ser396 (pSer396); assay: Tau phosphorylation assay (pSer396 ELISA / western blot) in SH-SY5Y cells; format: cell-based, human;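 also: EC50 for reduction of Tau pSer396 in lysed cells, measured by colorimetric ELISA or chemiluminescent western blot, both using the same pSer396 antibody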
IL-6 = IL-6 inhibition in LPS-stimulated human peripheral blood mononuclear cells (HTRF); format: cell-based; settings: Homo sapiens, PBMC; for EC50: Table 9, huPBMCs, LPS 50 ng/mL, 22 hours, dose-response starting from 10 μM; for inhibition at 10 µM: read-out: percent value in parentheses beside EC50 >10 μM;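 as to all read-outs here: IL-6 detected by HTRF with an XL665- and Cryptate-labelled anti-IL-6 antibody pair, samples run in duplicate, EC50 obtained from a four-parameter Levenberg-Marquardt curve fit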
Method: After 22 hour incubation, a mixture of anti-IL6 XL665 and anti-IL-6 Cryptate diluted in reconstitution buffer (Catalog #62IL6PEC, Cisbio Inc., Bedford, Mass.) was added to each well. […] All samples were processed in duplicate. […] EC50 was determined using software generated by Dotmatics Limited (Windhill Bishops Stortford Herts, UK) using the Levenberg-Marquardt 4 parameter fitting procedure with finite different gradients.

[3] = molecular target: recombinant DYRK1A kinase (Homo sapiens (Human), UniProt Q13627); assay: DYRK1A kinase assay (Ser/Thr 18 peptide Z-lyte FRET); format: biochemical; settings: 30 μM ATP, 1 h room temperature;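 also: Read-out is the coumarin to fluorescein emission ratio, referenced to unphosphorylated (0%) and phosphorylated (100%) Ser/Thr 18 peptide controls, values from dose-response curves by non-linear regression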
[4] = system: Wnt pathway (Sp5-Luc reporter, TCF/LEF binding sites) in SW480 colon carcinoma cells; assay: Screening assay for Wnt activity: Sp5-Luc reporter gene assay; format: cell-based, human; settings: Homo sapiens; for EC50: Sp5-Luc reporter, SW480 cells, 36 to 48 hours; for inhibition at 10 µM: SW480, read-out: percent inhibition at 10 μM;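 as to all read-outs here: firefly luciferase luminescence read in stably transduced SW480 cells carrying the Sp5 promoter reporter with eight TCF/LEF sites, compounds given in 0.1% DMSO final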
Method: The screening assay for Wnt activity is described as follows.
Following incubation, 15 μl of BriteLite Plus luminescence reagent (Perkin Elmer) was added to each well of the 384-well assay plates. The plates were placed on an orbital shaker for 2 min and then luminescence was quantified using the Envision (Perkin Elmer) plate reader.

[5] = system: α-smooth muscle actin (αSMA) positive LL29 cells; assay: Inhibition of fibrotic process: αSMA in TGF-β1 treated primary human fibroblasts from IPF patients; format: cell-based; settings: Homo sapiens, Fibroblast, 96 h; Table 8; LL29 fibroblasts from IPF patients, TGF-β1 20 ng/mL, 4 days; dose-response 10 μM to 0.94 nM;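 also: controls were TGF-β1 stimulated wells with DMSO vehicle (positive) and cells given DMSO alone (negative), cultured in F12 medium with 1% fetal bovine serum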
[6] = Homo sapiens, SH-SY5Y cells, overnight (16-18 h) exposure, read-out: pSer396 Tau EC50
[7] = Homo sapiens, SH-SY5Y, read-out: pSer396 Tau EC50

recombinant GSK3β kinase, sequence (P49841 whole entry): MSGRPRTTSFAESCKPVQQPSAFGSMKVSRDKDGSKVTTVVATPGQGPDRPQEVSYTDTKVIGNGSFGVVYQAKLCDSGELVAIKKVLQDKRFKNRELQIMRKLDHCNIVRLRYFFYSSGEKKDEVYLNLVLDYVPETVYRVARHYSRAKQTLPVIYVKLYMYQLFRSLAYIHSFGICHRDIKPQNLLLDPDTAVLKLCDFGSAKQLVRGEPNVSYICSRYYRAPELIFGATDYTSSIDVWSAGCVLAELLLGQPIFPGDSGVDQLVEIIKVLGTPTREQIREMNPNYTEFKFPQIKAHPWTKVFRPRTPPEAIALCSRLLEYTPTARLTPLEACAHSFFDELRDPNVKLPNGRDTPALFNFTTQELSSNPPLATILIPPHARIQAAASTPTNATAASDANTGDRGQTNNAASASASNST

| SMILES | EC50 [1] | EC50 (recombinant GSK3β kinase) | EC50 [2, 6] | EC50 (IL-6) | EC50 [3] | EC50 [4] | EC50 [5] | inhibition at 10 µM [1] | inhibition at 10 µM [4] | EC50 [2, 7] | inhibition at 10 µM (IL-6) | EC50 ([2]; control DYRK1A inhibitors, SH-SY5Y cells, read-out: EC50 in the Tau assay) |
| --- | --- | --- | --- | --- | --- | --- | --- | --- | --- | --- | --- | --- |
| CN(C)C1CCC(C(=O)Nc2cc3cc(-c4cnn(C)c4)ccc3cn2)CC1 (stereo in doubt) [Compound 1081, trans-4-(Dimethylamino)-N-(6-(1-methyl-1H-pyrazol-4-yl)isoquinolin-3-yl)cyclohexane-1-carboxamide] | 4650 nM | 82 nM | 470 nM | 1100 nM | 2.2 nM | 2730 nM |  |  |  |  |  |  |
| Cn1cc(-c2ccc3cnc(NC(=O)C4CCN(S(C)(=O)=O)CC4)cc3c2)cn1 [Compound 330, N-(6-(1-Methyl-1H-pyrazol-4-yl)isoquinolin-3-yl)-1-(methylsulfonyl) piperidine-4-carboxamide] | 6780 nM |  | 246 nM | 1160 nM |  | 449 nM | 20 nM |  |  |  |  |  |
| CC(F)(F)CN1CCC(C(=O)Nc2cc3cc(-c4cncs4)ccc3cn2)CC1 [Compound 731, 1-(2,2-Difluoropropyl)-N-(6-(thiazol-5-yl)isoquinolin-3-yl)piperidine-4-carboxamide] | 1100 nM | 42 nM | 450 nM | 1180 nM | 1.4 nM | 3050 nM |  |  |  |  |  |  |
| Cn1ncc(-c2ccc3cnc(NC(=O)[C@H]4CC[C@H](CO)CC4)cc3c2)c1CN1CCCCC1 [Compound 798, trans-4-(Hydroxymethyl)-N-(6-(1-methyl-5-(piperidin-1-ylmethyl)-1H-pyrazol-4-yl)isoquinolin-3-yl)cyclohexane-1-carboxamide] | 613 nM | 31 nM | 320 nM | 1270 nM | 3.1 nM | 594 nM |  |  |  |  |  |  |
| Cn1ncc(-c2ccc3cnc(NC(=O)C4CCOCC4)cc3c2)c1CN1CCCCC1 [Compound 839, N-(6-(1-Methyl-5-(piperidin-1-ylmethyl)-1H-pyrazol-4-yl)isoquinolin-3-yl) tetrahydro-2H-pyran-4-carboxamide] | 1180 nM | 17 nM | 254 nM | 3280 nM | 3.8 nM | 776 nM |  |  |  |  |  |  |
| Cc1nnc(-c2ccc3cnc(NC(=O)[C@H]4CC[C@H](CO)CC4)cc3c2)s1 [Compound 888, trans-4-(Hydroxymethyl)-N-(6-(5-methyl-1,3,4-thiadiazol-2-yl)isoquinolin-3-yl)cyclohexane-1-carboxamide] | 2470 nM | 8 nM | 195 nM | 3940 nM | 1.4 nM | 1040 nM |  |  |  |  |  |  |
| Cc1nnc(-c2ccc3cnc(NC(=O)CN4CCOC[C@H]4C)cc3c2)s1 [Compound 953, (R)—N-(6-(5-Methyl-1,3,4-thiadiazol-2-yl)isoquinolin-3-yl)-2-(3-methylmorpholino)acetamide] | > 10000 nM | 23 nM | 398 nM |  | 16.8 nM | > 10000 nM |  | 40.3% | 48.7% |  |  |  |
| Cc1nnc(-c2ccc3cnc(NC(=O)CN4C5CCC4CC5)cc3c2)s1 [Compound 959, 2-(7-Azabicyclo[2.2.1]heptan-7-yl)-N-(6-(5-methyl-1,3,4-thiadiazol-2-yl)isoquinolin-3-yl)acetamide] | > 10000 nM | 45 nM |  | > 10000 nM | 15.4 nM | 4240 nM |  | 45% |  | 443 nM | 6.1% |  |
| Cc1nnc(-c2ccc3cnc(NC(=O)CN4C5CCC4COC5)cc3c2)s1 [Compound 962, 2-(3-Oxa-8-azabicyclo[3.2.1]octan-8-yl)-N-(6-(5-methyl-1,3,4-thiadiazol-2-yl)isoquinolin-3-yl)acetamide] | > 10000 nM | 57 nM |  | > 10000 nM | 23.6 nM | > 10000 nM |  | 30.9% | 45% | 447 nM | 9.6% |  |
| CN1CCC(C(=O)Nc2cc3cc(-c4cnn(C)c4)c(Cl)cc3cn2)CC1 [Compound 1027, N-(7-Chloro-6-(1-methyl-1H-pyrazol-4-yl)isoquinolin-3-yl)-1-methylpiperidine-4-carboxamide] | 488 nM | 3070 nM | 2200 nM | > 10000 nM | 50 nM | 875 nM |  |  |  |  | 0% |  |
| Cc1ncc(-c2ccc3cnc(NC(=O)CN4CCCCC4)cc3c2)o1 [Compound 1028, N-(6-(2-Methyloxazol-5-yl)isoquinolin-3-yl)-2-(piperidin-1-yl)acetamide] | 3520 nM | 104 nM | 536 nM | 1930 nM | 22.5 nM | 3870 nM |  |  |  |  |  |  |
| Cn1cc(-c2ccc3cnc(NC(=O)CCN4CCOCC4)cc3c2)cn1 [Compound 1034, N-(6-(1-Methyl-1H-pyrazol-4-yl)isoquinolin-3-yl)-3-morpholinopropanamide] | 3240 nM | 27 nM | 430 nM | 3320 nM | 1.9 nM | 2040 nM |  |  |  |  |  |  |
| Cn1cc(-c2ccc3cnc(NC(=O)[C@H]4C[C@H](N5CCOCC5)C4)cc3c2)cn1 [Compound 1035, trans-N-(6-(1-Methyl-1H-pyrazol-4-yl)isoquinolin-3-yl)-3-morpholinocyclobutane-1-carboxamide] | 2460 nM | 10 nM | 129 nM | 1030 nM | 2.6 nM | 1370 nM |  |  |  |  |  |  |
| CN1CCC(N(C)C(=O)Nc2cc3cc(-c4cnn(C)c4)ccc3cn2)CC1 [Compound 1037, 1-methyl-3-(6-(1-methyl-1H-pyrazol-4-yl)isoquinolin-3-yl)-1-(1-methylpiperidin-4-yl)urea] | > 10000 nM | 1920 nM | > 10000 nM | 7520 nM | 10.2 nM | 3640 nM |  | 32.7% |  |  |  |  |
| CNc1ncc(-c2ccc3cnc(NC(=O)C4CCNCC4)cc3c2)s1 [Compound 1040, N-(6-(2-(Methylamino)thiazol-5-yl)isoquinolin-3-yl)piperidine-4-carboxamide] | 2680 nM | 98 nM | 1600 nM | 1180 nM | 4.8 nM | 1210 nM |  |  |  |  |  |  |
| CNc1ncc(-c2ccc3cnc(NC(=O)C4CCN(C)CC4)cc3c2)s1 [Compound 1041, 1-Methyl-N-(6-(2-(methylamino)thiazol-5-yl)isoquinolin-3-yl)piperidine-4-carboxamide] | 2760 nM | 58 nM | 1300 nM | 941 nM | 3.3 nM | 776 nM |  |  |  |  |  |  |
| CCN(CC)c1ncc(-c2ccc3cnc(NC(=O)CN4CCC(F)CC4)cc3c2)s1 [Compound 1047, N-(6-(2-(Diethylamino)thiazol-5-yl)isoquinolin-3-yl)-2-(4-fluoropiperidin-1-yl)acetamide] | > 10000 nM | 4740 nM | > 10000 nM | > 10000 nM | 463 nM | > 10000 nM |  | 41.7% | 32.6% |  | 4.5% |  |
| [2H]C([2H])(C(=O)Nc1cc2cc(-c3nnc(C)s3)ccc2cn1)N1CCOCC1 [Compound 1051, N-(6-(5-Methyl-1,3,4-thiadiazol-2-yl)isoquinolin-3-yl)-2-morpholinoacetamide-2,2-d2] | > 10000 nM | 9 nM | 147 nM |  | 14.6 nM | 480 nM |  | 22.5% |  |  |  |  |
| [2H]C1([2H])OC([2H])([2H])C([2H])([2H])N(CC(=O)Nc2cc3cc(-c4nnc(C)s4)ccc3cn2)C1([2H])[2H] [Compound 1052, N-(6-(5-Methyl-1,3,4-thiadiazol-2-yl)isoquinolin-3-yl)-2-(morpholino-d8) acetamide] | > 10000 nM | 11 nM | 254 nM |  | 18 nM | 2280 nM |  | 40.7% |  |  |  |  |
| CN1CCN(C(=O)[C@H]2CC[C@H](C(=O)Nc3cc4cc(-c5cnn(C)c5)ccc4cn3)CC2)CC1 [Compound 1091, trans-N-(6-(1-Methyl-1H-pyrazol-4-yl)isoquinolin-3-yl)-4-(4-methylpiperazine-1-carbonyl)cyclohexane-1-carboxamide] | 1250 nM | 69 nM | 869 nM |  | 1.4 nM | 2950 nM |  |  |  |  |  |  |
| CC(C)CN1CCC(C(=O)Nc2cc3cc(-c4nnnn4C)ccc3cn2)CC1 [Compound 1092, 1-Isobutyl-N-(6-(1-methyl-1H-tetrazol-5-yl)isoquinolin-3-yl)piperidine-4-carboxamide] | 2980 nM | 132 nM | 131 nM |  | 62.7 nM | 247 nM |  |  |  |  |  |  |
| [2H]c1nc(NC(=O)CN2CCCC2)cc2cc(-c3cnn(C)c3)ccc12 [Compound 1093, N-(6-(1-Methyl-1H-pyrazol-4-yl)isoquinolin-3-yl-1-d)-2-(pyrrolidin-1-yl) acetamide] |  | 47 nM | 422 nM |  | 11.7 nM | 1780 nM |  |  |  |  |  |  |
| CCN1/C(=C/C(C)=O)Sc2ccc(O)cc21 [Indy, reference compound] |  |  |  |  |  |  |  |  |  |  |  | > 10000 nM |
